# From PMC9090415, “Discovery of small molecule inhibitors of Plasmodium falciparum apicoplast DNA polymerase” (Journal of Enzyme Inhibition and Medicinal Chemistry, 2022)
# Target: P. falciparum apicoplast DNA polymerase (Pf-apPOL) (Plasmodium falciparum, UniProt Q8ILY1)
# Test: Fluorescence-based high-throughput DNA polymerase assay (molecular beacon), primary screen and dose-response
# Format: biochemical
# Settings: for DNA Pol: 90 min, 10 µM; for % inhibition apPOL 180' 2.5 / % inhibition apPOL 180' 5 / % inhibition apPOL 180' 10 / % inhibition apPOL 180' 20 / % inhibition apPOL 180' 40 / % inhibition apPOL 180' 80: read at 180'
# In short: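 Single-point screening used 10 µM compound with 20 nM polymerase, 20 nM hairpin substrate and 6 µM dNTPs for 90 min at 25 °C. Confirmatory titrations (2.5–80 µM) followed fluorescence at three times, and IC50 was derived from a fit including a cooperativity term n.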
# [1] = first dose-response, concentration 10
# [2] = first dose-response, concentration 20
# Sequence of P. falciparum apicoplast DNA polymerase (Pf-apPOL) (Q8ILY1 entry or part of it): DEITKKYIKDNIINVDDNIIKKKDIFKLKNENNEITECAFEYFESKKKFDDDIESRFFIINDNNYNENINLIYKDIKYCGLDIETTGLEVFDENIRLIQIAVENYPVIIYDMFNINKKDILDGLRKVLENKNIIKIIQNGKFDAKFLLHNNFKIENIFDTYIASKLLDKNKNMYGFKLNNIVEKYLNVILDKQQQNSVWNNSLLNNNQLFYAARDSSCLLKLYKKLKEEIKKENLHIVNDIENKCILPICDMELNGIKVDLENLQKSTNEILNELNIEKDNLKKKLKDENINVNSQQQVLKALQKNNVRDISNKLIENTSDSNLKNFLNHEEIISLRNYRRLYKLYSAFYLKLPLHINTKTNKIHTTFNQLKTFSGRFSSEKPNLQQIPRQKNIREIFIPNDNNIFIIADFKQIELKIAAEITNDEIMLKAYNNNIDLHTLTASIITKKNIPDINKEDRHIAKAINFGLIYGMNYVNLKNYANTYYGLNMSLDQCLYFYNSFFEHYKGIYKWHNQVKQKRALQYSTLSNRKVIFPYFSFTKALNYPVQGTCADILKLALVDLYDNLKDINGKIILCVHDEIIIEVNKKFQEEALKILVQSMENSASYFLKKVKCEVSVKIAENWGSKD
compound,measurement,setting,value
"Cc1ccc(NC(=O)Cn2ccc3c(=O)[nH]ccc32)cc1F [Molecule 48, O=C(Cn1ccc2c1cc[nH]c2=O)Nc1ccc(c(c1)F)C]",DNA Pol,"""DNA Pol"" of the 186 hits list (screen value)",27
same,% inhibition Apo pol 10',"DRC-1, concentration 2.5",0.4313%
same,% inhibition Apo pol 10',"DRC-1, concentration 5",4.695%
same,% inhibition Apo pol 10',"DRC-1, concentration 10",32.4815%
same,% inhibition Apo pol 10',"DRC-1, concentration 20",59.9779%
same,% inhibition Apo pol 10',"DRC-1, concentration 40",70.0783%
same,% inhibition Apo pol 10',"DRC-1, concentration 80",79.5186%
same,% inhibition Apol 90',"DRC-1, concentration 2.5",-2.985%
same,% inhibition Apol 90',"DRC-1, concentration 5",-1.632%
same,% inhibition Apol 90',"DRC-1, concentration 10",21.1063%
same,% inhibition Apol 90',"DRC-1, concentration 20",47.267%
same,% inhibition Apol 90',"DRC-1, concentration 40",60.3661%
same,% inhibition Apol 90',"DRC-1, concentration 80",79.6602%
same,% inhibition apPOL 180',"DRC-1, concentration 2.5",-5.068%
same,% inhibition apPOL 180',"DRC-1, concentration 5",-4.79%
same,% inhibition apPOL 180',"DRC-1, concentration 10",10.5149%
same,% inhibition apPOL 180',"DRC-1, concentration 20",31.5724%
same,% inhibition apPOL 180',"DRC-1, concentration 40",45.3289%
same,% inhibition apPOL 180',"DRC-1, concentration 80",73.7679%
same,% inhibition Apo pol 5',"DRC-2, concentration 2.5",-5.29%
same,% inhibition Apo pol 5',"DRC-2, concentration 5",3%
same,% inhibition Apo pol 5',"DRC-2, concentration 10",22%
same,% inhibition Apo pol 5',"DRC-2, concentration 20",44%
same,% inhibition Apo pol 5',"DRC-2, concentration 40",46%
same,% inhibition Apo pol 5',"DRC-2, concentration 80",38%
same,% inhibition Apol 40',"DRC-2, concentration 2.5",-4.56%
same,% inhibition Apol 40',"DRC-2, concentration 5",4%
same,% inhibition Apol 40',"DRC-2, concentration 10",23%
same,% inhibition Apol 40',"DRC-2, concentration 20",57%
same,% inhibition Apol 40',"DRC-2, concentration 40",65%
same,% inhibition Apol 40',"DRC-2, concentration 80",62%
same,% inhibition ApPOL 90',"DRC-2, concentration 2.5",-6.53%
same,% inhibition ApPOL 90',"DRC-2, concentration 5",2.25%
same,% inhibition ApPOL 90',"DRC-2, concentration 10",21%
same,% inhibition ApPOL 90',"DRC-2, concentration 20",56%
same,% inhibition ApPOL 90',"DRC-2, concentration 40",67%
same,% inhibition ApPOL 90',"DRC-2, concentration 80",67%
same,% inhibition apPOL 180',"DRC-2, concentration 2.5",-10%
same,% inhibition apPOL 180',"DRC-2, concentration 5",-4%
same,% inhibition apPOL 180',"DRC-2, concentration 10",7%
same,% inhibition apPOL 180',"DRC-2, concentration 20",49%
same,% inhibition apPOL 180',"DRC-2, concentration 40",65%
same,% inhibition apPOL 180',"DRC-2, concentration 80",69%
same,DNA Pol,"primary screen value, DNA Pol",27
"COc1ccccc1CC(=O)N1CCc2c(nc3cc(-c4ccccc4Cl)[nH]n3c2=O)C1 [Molecule 49, COc1ccccc1CC(=O)N1CCc2c(C1)nc1n(c2=O)[nH]c(c1)c1ccccc1Cl]",DNA Pol,"186 hits, DNA Pol (screen value), unit not given",46
same,DNA Pol,"'DNA Pol' (screen value), unit not given",46
same,% inhibition Apo pol 10' 2.5,"DRC-1, read at 10', concentration 2.5",7.56%
same,% inhibition Apo pol 10' 5,"DRC-1, read at 10', concentration 5",17%
same,% inhibition Apo pol 10' 10,"DRC-1, read at 10', concentration 10",40%
same,% inhibition Apo pol 10' 20,"DRC-1, read at 10', concentration 20",65%
same,% inhibition Apo pol 10' 40,"DRC-1, read at 10', concentration 40",80%
same,% inhibition Apo pol 10' 80,"DRC-1, read at 10', concentration 80",74%
same,% inhibition Apol 90' 2.5,"DRC-1, read at 90', concentration 2.5",-3.41%
same,% inhibition Apol 90' 5,"DRC-1, read at 90', concentration 5",2.19%
same,% inhibition Apol 90' 10,"DRC-1, read at 90', concentration 10",20%
same,% inhibition Apol 90' 20,"DRC-1, read at 90', concentration 20",40%
same,% inhibition Apol 90' 40,"DRC-1, read at 90', concentration 40",68%
same,% inhibition Apol 90' 80,"DRC-1, read at 90', concentration 80",71%
same,% inhibition apPOL 180' 2.5,"DRC-1, concentration 2.5",-9%
same,% inhibition apPOL 180' 5,"DRC-1, concentration 5",-5.67%
same,% inhibition apPOL 180' 10,"DRC-1, concentration 10",8%
same,% inhibition apPOL 180' 20,"DRC-1, concentration 20",20%
same,% inhibition apPOL 180' 40,"DRC-1, concentration 40",52%
same,% inhibition apPOL 180' 80,"DRC-1, concentration 80",59%
same,% inhibition Apo pol 5',"DRC-2, concentration 40",56%
same,% inhibition Apol 40',"DRC-2, concentration 5",20%
same,% inhibition Apol 40',"DRC-2, concentration 10",44%
same,% inhibition Apol 40',"DRC-2, concentration 20",56%
same,% inhibition apPOL 180',"DRC-2, concentration 20",44%
same,% inhibition apPOL 180',"DRC-2, concentration 40",56%
same,% inhibition apPOL 180',"DRC-2, concentration 80",52%
same,% inhibition Apo pol 5' 2.5,"DRC-2, read at 5', concentration 2.5",3.77%
same,% inhibition Apo pol 5' 5,"DRC-2, read at 5', concentration 5",16%
same,% inhibition Apo pol 5' 10,"DRC-2, read at 5', concentration 10",38%
same,% inhibition Apo pol 5' 20,"DRC-2, read at 5', concentration 20",49%
same,% inhibition Apo pol 5' 40,"DRC-2, read at 5', concentration 40",56%
same,% inhibition Apo pol 5' 80,"DRC-2, read at 5', concentration 80",41%
same,% inhibition Apol 40' 2.5,"DRC-2, read at 40', concentration 2.5",3.38%
same,% inhibition Apol 40' 5,"DRC-2, read at 40', concentration 5",20%
same,% inhibition Apol 40' 10,"DRC-2, read at 40', concentration 10",44%
same,% inhibition Apol 40' 20,"DRC-2, read at 40', concentration 20",56%
same,% inhibition Apol 40' 40,"DRC-2, read at 40', concentration 40",64%
same,% inhibition Apol 40' 80,"DRC-2, read at 40', concentration 80",57%
same,% inhibition ApPOL 90' 2.5,"DRC-2, read at 90', concentration 2.5",3.2%
same,% inhibition ApPOL 90' 5,"DRC-2, read at 90', concentration 5",18%
same,% inhibition ApPOL 90' 10,"DRC-2, read at 90', concentration 10",43%
same,% inhibition ApPOL 90' 20,"DRC-2, read at 90', concentration 20",54%
same,% inhibition ApPOL 90' 40,"DRC-2, read at 90', concentration 40",63%
same,% inhibition ApPOL 90' 80,"DRC-2, read at 90', concentration 80",58%
same,% inhibition apPOL 180' 2.5,"DRC-2, concentration 2.5",-1%
same,% inhibition apPOL 180' 5,"DRC-2, concentration 5",12%
same,% inhibition apPOL 180' 10,"DRC-2, concentration 10",34%
same,% inhibition apPOL 180' 20,"DRC-2, concentration 20",44%
same,% inhibition apPOL 180' 40,"DRC-2, concentration 40",56%
same,% inhibition apPOL 180' 80,"DRC-2, concentration 80",52%
same,% inhibition Apo pol 10',[1],40%
same,% inhibition Apol 90',[1],20%
same,% inhibition Apol 90',[2],40%
same,% inhibition apPOL 180',[2],20%
same,% inhibition apPOL 180',"first dose-response, concentration 40",52%
